Source: patent US9901583B2, “Method of treating non-small cell lung cancer and/or small cell lung cancer using thienotriazolodiazepine compounds” (ONCOETHIX GMBH, priority 2014, dated 2018)
Values joined by “and” are separate entries in the source; they are usually repeats but may differ in a detail not shown here. Equal entries are not always repeated.

Experiments:
[1] = test system: NSCLC cell lines (H2228, H3122, A549, HOP62, HOP92); assay: MTT assay, growth inhibition, NSCLC panel; type: cell-based; details: 72 h, 72 h exposure, 4 of 5 NSCLC cell lines
Protocol: (§1) Protein levels were analyzed by Western Blot with commercial antibodies; RT-PCR was done with Fast SYBR Green Master Mix on a StepOnePlus Real-Time PCR System at baseline, 4 and 24 h post-treatment. For cell cycle analysis cells were stained with propidium iodide and DNA content analyzed with a FACScan flow cytometer. Compound (1-1) was combined with the targeted agents everolimus and crizotinib and the combination index (CI) determined by the Chou-Talalay method.
(§2) Materials and Methods. Five established NSCLC cell lines, HOP62, HOP92, A549, H2228, and H3122 harboring different oncogenic mutations for KRAS, LKB I, TP53 and ALK (FIG. 13) were exposed to increasing doses of compound (1-1) (OncoEthix SA, Switzerland) for 72 h and cell proliferation was evaluated by MTT assays. Results represent the mean±95% CI of at least 3 independent experiments performed in triplicate. Protein levels were analyzed by Western blot using commercial antibodies. For cell cycle analysis cells were stained with PI and analyzed using a FACScan flow cytometer after 24 h of treatment. […] Concomitant compound (1-1) combination studies were performed in cell lines exposed for 48 h to increasing doses of compound (1-1) alone or in combination with everolimus or crizotinib, and assessed using the Chou & Talalay method. Combination Index (CI) was determined by median effect plot analysis using CalcuSyn software. […]

H3122 cells = assay: H3122 tumor-bearing mice; type: in vivo, male athymic NMRI nude mice; details: 3 weeks of treatment
Protocol: In vivo studies: 5×10^6 H3122 cells were injected in the flank of male athymic NMRI nude mice, and mice were randomized to 3 groups (8 mice/group) when tumor volume reach 100 mm^3; vehicle (PBS, once daily, oral continuous), Compound (1-1) (50 mg/kg/bidaily, gavage, continuous), or crizotinib (25 mg/kg/daily, gavage, continuous).

H2226 = assay: Cell cycle analysis (propidium iodide, FACScan); type: cell-based; details: H2226, 24 h exposure at 500 nM
HOP92 = assay: Cell cycle analysis (propidium iodide, FACScan); type: cell-based; details: HOP92, 24 h exposure at 500 nM
Protocol: as §1, §2

H3122 = assay: Cell cycle analysis (propidium iodide, FACScan); type: cell-based; details: H3122, 24 h exposure at 500 nM
Protocol: as §1, §2

DMS79 cells = assay: MTT assay, growth inhibition; type: cell-based; details: Homo sapiens, DMS-79, 72 h exposure
Protocol: (§3) Protein levels were analyzed by Western Blot using commercial antibodies and RT-PCR was performed with Fast SYBR Green Master Mix on a StepOnePlus Real-Time PCR System at baseline, then 4 and 24 h post-treatment. For cell cycle analysis, cells were stained with propidium iodide and analyzed for DNA content with a FACScan flow cytometer.
(§4) Cell lines were exposed to increasing doses of compound (1-1) for 72 hours, and cell proliferation was evaluated with the MTT assay. GI50 and Emax values were calculated with the equation for sigmoidal dose response using Prism 5.00 for Windows. Results represent the mean±95% CI of at least 3 independent experiments performed in triplicate.
(§5) For cell cycle analysis, cells were stained with propidium iodide and analyzed with a FACScan flow cytometer. RNA was isolated after treatment with DMSO or OTX015 (500 nM) for 2, 4, 8 or 12 and 24 h and gene expression profiles (GEP) were obtained in all NSCLC and 2 SCLC (H82 and DMS114) cell lines with Illumina HumanHT-12 Expression BeadChips. Data mining was done with LIMMA, GSEA, Metacore.

H82 cells = assay: MTT assay, growth inhibition; type: cell-based; details: Homo sapiens, NCI-H82, 72 h exposure
Protocol: as §3, §4, §5

DMS114 cells = assay: MTT assay, growth inhibition; type: cell-based; details: Homo sapiens, DMS-114, read-out: GI50 (95% CI), 72 h exposure
Protocol: as §3, §4, §5

H69 cells = assay: MTT assay, growth inhibition; type: cell-based; details: Homo sapiens, NCI-H69, 72 h exposure
Protocol: as §3, §4, §5

H2228 cells = assay: Combination with crizotinib, Chou-Talalay combination index; type: cell-based; details: 48 h concomitant exposure, dihydrate
Protocol: as §1, §2

[2] = Oral exposure in the rat (pharmacokinetics); type: in vivo, Sprague Dawley rats; details: 1 mg/kg intravenous, rats
Protocol: The oral bioavailability of three formulations of solid dispersions of compound (1-1) was determined in rats. The three dispersions chosen were the 25% dispersion of compound (1-1) in PVP, the 25% dispersion of compound (1-1) in HPMCAS-MG, and the 50% dispersion of compound (1-1) in HPMCAS-MG. The animals used in the study were Specific Pathogen Free (SPF) Hsd:Sprague Dawley rats obtained from the Central Animal Laboratory at the University of Turku, Finland. The rats were originally purchased from Harlan, The Netherlands. The rats were female and were ten weeks of age, and 12 rats were used in the study. […]
The oral dosing solutions containing the 25% dispersion of compound (1-1) in PVP, the 25% dispersion of compound (1-1) in HPMCAS-MG, and the 50% dispersion of compound (1-1) in HPMCAS-MG were prepared by adding a pre-calculated amount of sterile water for injection to containers holding the dispersion using appropriate quantities to obtain a concentration of 0.75 mg/mL of compound (1-1). […]
Pharmacokinetic parameters were calculated with the Phoenix WinNonlin software package (version 6.2.1, Pharsight Corp., CA, USA) with standard noncompartmental methods. The elimination phase half-life (t1/2) was calculated by least-squares regression analysis of the terminal linear part of the log concentration-time curve. […]

FKBP12 = FKBP12 (Homo sapiens, UniProt P62942); details: cited from earlier work
PI3K/mTOR = details: cited from earlier work
[3] = test system: Akt phosphorylation on S473; details: cited from earlier work
[4] = test system: Akt phosphorylation on T308; details: cited from earlier work
PDGFR = details: read-out: IC50 PDGFR; cited from earlier work
PI3Kγ (p110γ) = PI3Kγ (p110γ) (Homo sapiens, UniProt P48736); details: cited from earlier work
PI3Kβ (p110β) = PI3Kβ (p110β) (Homo sapiens, UniProt P42338); details: cited from earlier work
Sequence of PI3Kβ (p110β) (P42338 whole entry, species assumed): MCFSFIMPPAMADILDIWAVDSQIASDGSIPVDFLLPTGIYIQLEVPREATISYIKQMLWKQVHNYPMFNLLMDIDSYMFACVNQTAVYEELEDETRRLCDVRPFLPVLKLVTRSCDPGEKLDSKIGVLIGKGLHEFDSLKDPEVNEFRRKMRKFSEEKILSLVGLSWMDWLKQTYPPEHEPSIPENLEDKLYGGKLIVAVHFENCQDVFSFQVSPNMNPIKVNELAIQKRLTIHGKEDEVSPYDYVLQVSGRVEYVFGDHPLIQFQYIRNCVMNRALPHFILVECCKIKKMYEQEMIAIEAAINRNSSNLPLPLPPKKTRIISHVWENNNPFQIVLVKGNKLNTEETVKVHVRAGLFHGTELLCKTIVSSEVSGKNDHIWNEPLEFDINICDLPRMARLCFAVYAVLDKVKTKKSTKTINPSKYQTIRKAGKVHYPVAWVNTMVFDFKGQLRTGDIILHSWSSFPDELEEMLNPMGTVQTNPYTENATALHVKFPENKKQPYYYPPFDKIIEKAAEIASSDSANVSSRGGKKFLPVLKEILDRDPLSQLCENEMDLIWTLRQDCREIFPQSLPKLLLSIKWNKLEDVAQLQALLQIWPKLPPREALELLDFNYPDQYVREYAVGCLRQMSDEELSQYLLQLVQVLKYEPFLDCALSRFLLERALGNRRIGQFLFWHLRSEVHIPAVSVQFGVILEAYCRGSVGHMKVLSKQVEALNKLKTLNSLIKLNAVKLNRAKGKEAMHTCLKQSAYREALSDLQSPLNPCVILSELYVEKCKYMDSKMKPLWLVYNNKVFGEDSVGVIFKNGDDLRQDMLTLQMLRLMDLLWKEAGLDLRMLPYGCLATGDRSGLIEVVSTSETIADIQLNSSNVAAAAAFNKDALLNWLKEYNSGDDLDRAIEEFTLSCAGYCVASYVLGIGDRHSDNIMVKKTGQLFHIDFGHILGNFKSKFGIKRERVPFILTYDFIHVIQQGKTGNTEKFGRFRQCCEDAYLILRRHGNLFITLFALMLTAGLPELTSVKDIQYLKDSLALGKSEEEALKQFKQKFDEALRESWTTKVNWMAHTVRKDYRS
Sequence of PI3Kβ (p110β) (P27986 whole entry partner, species assumed): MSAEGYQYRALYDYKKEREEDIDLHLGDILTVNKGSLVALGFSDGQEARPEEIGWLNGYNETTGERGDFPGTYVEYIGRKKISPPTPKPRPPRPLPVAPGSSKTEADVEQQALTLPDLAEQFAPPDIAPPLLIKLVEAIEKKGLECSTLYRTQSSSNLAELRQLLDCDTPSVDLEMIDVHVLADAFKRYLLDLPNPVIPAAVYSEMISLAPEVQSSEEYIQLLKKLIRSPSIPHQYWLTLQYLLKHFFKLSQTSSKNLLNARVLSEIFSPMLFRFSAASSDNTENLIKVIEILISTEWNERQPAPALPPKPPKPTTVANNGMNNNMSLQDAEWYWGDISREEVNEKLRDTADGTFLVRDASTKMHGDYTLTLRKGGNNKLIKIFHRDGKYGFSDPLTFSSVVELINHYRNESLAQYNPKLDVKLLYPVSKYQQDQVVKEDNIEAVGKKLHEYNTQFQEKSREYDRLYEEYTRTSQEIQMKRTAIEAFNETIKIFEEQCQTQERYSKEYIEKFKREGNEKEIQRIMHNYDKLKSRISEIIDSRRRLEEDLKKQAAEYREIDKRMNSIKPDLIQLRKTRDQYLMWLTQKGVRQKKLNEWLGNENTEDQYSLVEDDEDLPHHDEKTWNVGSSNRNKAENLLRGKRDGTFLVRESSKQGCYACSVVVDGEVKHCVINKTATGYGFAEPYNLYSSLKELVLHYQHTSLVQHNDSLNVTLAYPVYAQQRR

Sequence of PI3Kγ (p110γ) (P48736 whole entry, species assumed): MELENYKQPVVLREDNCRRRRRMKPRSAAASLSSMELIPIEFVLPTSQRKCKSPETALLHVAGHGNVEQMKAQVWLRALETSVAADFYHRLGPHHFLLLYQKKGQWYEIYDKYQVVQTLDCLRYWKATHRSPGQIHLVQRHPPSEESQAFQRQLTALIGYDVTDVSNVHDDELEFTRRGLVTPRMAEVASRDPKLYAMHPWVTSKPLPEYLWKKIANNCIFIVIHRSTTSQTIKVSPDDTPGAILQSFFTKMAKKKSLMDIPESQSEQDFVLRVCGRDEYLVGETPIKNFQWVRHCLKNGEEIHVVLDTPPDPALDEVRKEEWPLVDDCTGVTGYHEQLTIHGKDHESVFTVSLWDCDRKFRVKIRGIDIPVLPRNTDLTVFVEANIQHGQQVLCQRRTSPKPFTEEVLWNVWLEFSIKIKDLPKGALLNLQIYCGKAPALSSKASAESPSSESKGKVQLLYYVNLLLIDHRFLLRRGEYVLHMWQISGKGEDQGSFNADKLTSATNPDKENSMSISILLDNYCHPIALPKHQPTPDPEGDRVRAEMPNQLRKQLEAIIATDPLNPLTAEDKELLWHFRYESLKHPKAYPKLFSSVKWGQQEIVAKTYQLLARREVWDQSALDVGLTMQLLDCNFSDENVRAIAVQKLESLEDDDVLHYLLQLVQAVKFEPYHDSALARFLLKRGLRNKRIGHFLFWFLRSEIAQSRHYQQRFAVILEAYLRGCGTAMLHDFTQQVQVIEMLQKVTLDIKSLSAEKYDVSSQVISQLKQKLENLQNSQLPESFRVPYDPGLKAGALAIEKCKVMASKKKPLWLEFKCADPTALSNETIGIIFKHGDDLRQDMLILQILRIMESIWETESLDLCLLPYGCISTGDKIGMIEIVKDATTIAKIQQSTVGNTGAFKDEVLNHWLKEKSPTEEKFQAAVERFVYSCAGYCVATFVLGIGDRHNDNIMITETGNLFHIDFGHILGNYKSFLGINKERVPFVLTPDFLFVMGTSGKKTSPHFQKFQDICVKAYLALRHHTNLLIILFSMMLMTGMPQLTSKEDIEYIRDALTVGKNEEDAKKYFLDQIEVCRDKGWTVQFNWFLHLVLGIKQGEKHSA
Sequence of FKBP12 (P62942 whole entry, species assumed): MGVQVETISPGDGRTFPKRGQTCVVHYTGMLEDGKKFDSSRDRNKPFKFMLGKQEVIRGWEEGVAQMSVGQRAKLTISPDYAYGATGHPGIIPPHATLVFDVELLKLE

In the case of `Cc1sc2c(c1C)C(c1ccc(Cl)cc1)=N[C@@H](CC(=O)Nc1ccc(O)cc1)c1nnc(C)n1-2` [Compound (1-1), 2-[(6S)-4-(4-chlorophenyl)-2,3,9-trimethyl-6H-thienol[3,2-f]-[1,2,4]triazolo[4,3-a][1,4]diazepin-6-yl]-N-(4-hydroxyphenyl)acetamide dihydrate], the GI50 [1] is reported as 110 to 940 nM, the weight loss (H3122 cells) is reported as “no weight loss was observed” and the “reduction of percent cells in the S phase” value (“reduction of percent cells” below) (H2226) is reported as 42%. For the same compound, the “reduction of percent cells” value (HOP92) was 40%, the “reduction of percent cells” value (H3122) was 52% and the GI50 (DMS79 cells) was over 6000 nM. It also gave a GI50 (H82 cells) of over 6000 nM, a GI50 (DMS114 cells) of 120 nM and a GI50 (H69 cells) of over 6000 nM. For the same compound, the “combination index (CI) with crizotinib” value (H2228 cells) was 0.98 and 0.9 and the CI/F [2] was 13.4 mL/min/kg.

In the case of `CO[C@H]1C[C@@H]2CC[C@@H](C)[C@@](O)(O2)C(=O)C(=O)N2CCCC[C@H]2C(=O)O[C@H]([C@H](C)C[C@@H]2CC[C@@H](OCCO)[C@H](OC)C2)CC(=O)[C@H](C)/C=C(\C)[C@@H](O)[C@@H](OC)C(=O)[C@H](C)C[C@H](C)/C=C/C=C/C=C/1C` [Everolimus], the IC50 (FKBP12) is given as 1.6 to 2.4 nM.

For `COc1ccc(-c2ccc3ncc4c(c3c2)n(-c2ccc(N3CCNCC3)c(C(F)(F)F)c2)c(=O)n4C)cn1` [NVP-BGT226], the IC50 (PI3K/mTOR) is listed as 1 nM.

In the case of `COc1ccc(-c2cc3c(C)nc(N)nc3n([C@H]3CC[C@H](OCCO)CC3)c2=O)cn1` [PF-04691502], the IC50 [3] is given as 3.8 nM and the IC50 [4] is given as 7.5 nM.

For `Nc1ncnc2c1c(-c1cnc3[nH]ccc3c1)nn2C1CCCC1` [PP-121], the IC50 (PDGFR) is given as 2 nM.

For GSK2126458, the Ki (PI3Kγ (p110γ)) is given as 0.024 nM and the Ki (PI3Kβ (p110β)) is given as 0.13 nM.
